Values joined by “and” are separate entries in the source; they are usually repeats but may differ in a detail not shown here. Equal values may be shown once. Read-outs that look alike come from different tables or passages of the source.
What was measured:
[1] = test system: HER3-ss+4aa/Gaussia Luciferase; assay: Dox-Induced Her3-ss-Gluc Assay; format: cell-based
Outline: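 Stable Flp-In 293 T-REx cells carried a doxycycline-inducible HER3 signal sequence (+4 aa) fused to Gaussia luciferase. Cells were plated the day before the assay. Compound dilutions in DMSO/media containing doxycycline were then added, and plates were incubated at 37 °C, 5% CO2.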

[2] = Liver Microsome Stability Assay (human); conditions: human liver microsomes, with NADPH, 1.0 uM compound
Experimental: (§1) Stability of a compound was assessed in the presence of liver microsomes from various sources—mouse, rat, monkey and human liver microsomes. 1.0 uM compound, 0.4% DMSO in 0.1 M Potassium Phosphate with 1.0 mg/mL liver microsomes, were incubated at 37° C. with or without 1 mM NADPH. The samples were quenched at 0, and 30 minutes.

[3] = Liver Microsome Stability Assay (rat); conditions: rat liver microsomes, with NADPH, 1.0 uM compound
Experimental: as §1

[4] = test system: IL-2-FL/Gaussia Luciferase; assay: Dox Induced IL2-FL-Gluc Assay; format: cell-based; conditions: for IC50: 24 hr Dox induction, 293FRT/TO cells, read-out: 24 hr Dox Inducible IL2FLGluc 293FRT/TO: Mean IC50; for 24 hr Dox Inducible IL2FLGluc 293FRT/TO: IL2/PD1: ratio of IL2FLGluc IC50 to PD1ssGluc IC50
Outline: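 Stable Flp-In 293 T-REx cells carrying doxycycline-inducible full-length IL-2 (aa 1-153) fused to Gaussia luciferase, plated the day before assay. Compound dilutions added in medium containing doxycycline, incubated at 37 °C, 5% CO2. Undefined stereocentres mean data refer to stereoisomer mixtures.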

[5] = test system: multiple myeloma cell line U266B1; assay: U266 Cell Viability Assay; format: cell-based, human; conditions: U266B1 cells, Celltiter-Glo
Outline: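 U266B1 multiple myeloma cells in RPMI 1640/10% FBS were treated with compound dilutions for 48 h at 37 °C, 5% CO2. Viability was measured by CellTiter-Glo luminescence; compounds drawn without stereochemistry were tested as stereoisomer mixtures.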

[6] = test system: TNFα-FL/Gaussia Luciferase; assay: Dox Induced TNFα-FL-Gluc Assay; format: cell-based; conditions: for IC50: 24 hr Dox induction, 293FRT/TO cells, read-out: 24 hr Dox Inducible TNFaFLGluc 293FRT/TO: Mean IC50; for 24 hr Dox Inducible TNFaFLGluc 293FRT/TO: TNF/PD1: ratio of TNFaFLGluc IC50 to PD1ssGluc IC50
Outline: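 Flp-In 293 T-REx cells stably carrying doxycycline-inducible full-length TNFα (aa 1-233) fused to Gaussia luciferase. Plated the day before, then treated with compound dilutions in doxycycline-containing medium at 37° C, 5% CO2.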

[7] = test system: PD1-ss+10aa/Gaussia Luciferase; assay: Dox-Induced PD1-ss-Gluc Assay; format: cell-based
Outline: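 Doxycycline-induced expression of a PD1-ss+10aa/Gaussia luciferase reporter is measured in stable Flp-In 293 T-REx cells. Compound dilutions containing doxycycline are added one day after plating and incubated at 37 °C, 5% CO2. Values for unassigned stereocentres refer to stereoisomer mixtures.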

[8] = Liver Microsome Stability Assay (mouse); conditions: mouse liver microsomes, with NADPH, 1.0 uM compound
Experimental: as §1

[9] = Liver Microsome Stability Assay (monkey); conditions: monkey liver microsomes, with NADPH, 1.0 uM compound
Experimental: as §1

[10] = test system: multiple myeloma cell line NCI-H929; assay: H929 Cell Viability Assay; format: cell-based, human; conditions: NCI-H929 cells, Celltiter-Glo
Outline: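 NCI-H929 cells in RPMI 1640 with 10% FBS were treated with compound dilutions for 48 h at 37° C, 5% CO2. Viability was read by CellTiter-Glo luminescence. Undefined stereocentres denote stereoisomer mixtures.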

[11] = 24 hr Dox induction; 293FRT/TO cells; read-out: 24 hr Dox Inducible Her3(ss + 4)Gluc 293FRT/TO: Mean IC50
[12] = 24 hr Dox induction; 293FRT/TO cells; read-out: 24 hr Dox Inducible PD1ssGluc 293FRT/TO: Mean IC50

Structure (SMILES) | IC50 [1, 11] | Liver Microsome Stability (Multiple Species): Human - % Remaining after 30 min w/NADPH [2] | Liver Microsome Stability (Multiple Species): Rat - % Remaining after 30 min w/NADPH [3] | IC50 [4] | 24 hr Dox Inducible IL2FLGluc 293FRT/TO: IL2/PD1 [4] | EC50 ([5]; Homo sapiens, U-266, 48 h) [µM] | IC50 [6] | 24 hr Dox Inducible TNFaFLGluc 293FRT/TO: TNF/PD1 [6] | IC50 [7, 12] | Liver Microsome Stability (Multiple Species): Mouse - % Remaining after 30 min w/NADPH [8] | Liver Microsome Stability (Multiple Species): Monkey - % Remaining after 30 min w/NADPH [9] | EC50 ([10]; Homo sapiens, NCI-H929, 48 h) [µM] | EC50 ([5]; 48 hr) [µM] | EC50 ([10]; 48 hr) [µM] | IC50 ([1]; read-out: 24 hr Dox Inducible Her3(ss + 4)Gluc 293FRT/TO: Mean IC50; 24 hr Dox induction; 293FRT/TO cells) [µM] | EC50 ([5]; Homo sapiens, U-266, 48 hr) [µM] | IC50 ([7]; read-out: 24 hr Dox Inducible PD1ssGluc 293FRT/TO: Mean IC50; 24 hr Dox induction; 293FRT/TO cells) [µM] | EC50 ([10]; Homo sapiens, 48 hr) [µM]
CC(=O)N1CCC[C@H](Oc2ccc(N3CCC[C@@H]3c3csc(NC(=O)c4cccn4Cc4ccnc(F)c4)n3)cc2)C1 [Compound A84, N-(4-((R)-1-(4-(((S)-1-acetylpiperidin-3-yl)oxy)phenyl)pyrrolidin-2-yl)thiazol-2-yl)-1-((2-fluoropyridin-4-yl)methyl)-1H-pyrrole-2-carboxamide] | 0.0626 µM | 0.5% | 2.51% | 0.087 µM | 2.1 | > 25 | 0.31 µM | 7.61 | 0.0407 µM | 1% | 0.73% | 1.05 | – | – | – | – | – | –
O=C(Nc1nc([C@H]2CCCN2c2ccc(OC3CNC3)cc2)cs1)c1cccn1Cc1ccnc(F)c1 [Compound A85, (R)-N-(4-(1-(4-(azetidin-3-yloxy)phenyl)pyrrolidin-2-yl)thiazol-2-yl)-1-((2-fluoropyridin-4-yl)methyl)-1H-pyrrole-2-carboxamide] | 0.566 µM and 0.543 µM | 52.8% and 65.2% | 90.7% and 99.6% | 2.11 µM and 1.47 µM | 7.4 and 5 | 10.3 | 21.6 µM and > 25 µM | 75.9 and > 85.1 | 0.285 µM and 0.294 µM | 57.7% and 62.5% | 49% and 62.5% | 6.26 | 7.38 | 5.29 | – | – | – | –
O=C(Nc1nc([C@H]2CCCN2c2ccc(O[C@@H]3CCCNC3)cc2)cs1)c1cccn1Cc1ccnc(F)c1 [Compound A87, 1-((2-fluoropyridin-4-yl)methyl)-N-(4-((R)-1-(4-(((R)-piperidin-3-yl)oxy)phenyl)pyrrolidin-2-yl)thiazol-2-yl)-1H-pyrrole-2-carboxamide] | 1.15 µM | 51.1% | 61.8% | 2.58 µM | 4.1 | 8.83 | 21.5 µM | 33.8 | 0.636 µM | 75.6% | 32.6% | 6.31 | – | – | – | – | – | –
O=C(Nc1nc([C@H]2CCCN2c2ccc(O[C@H]3CCCNC3)cc2)cs1)c1cccn1Cc1ccnc(F)c1 [Compound A88, 1-((2-fluoropyridin-4-yl)methyl)-N-(4-((R)-1-(4-(((S)-piperidin-3-yl)oxy)phenyl)pyrrolidin-2-yl)thiazol-2-yl)-1H-pyrrole-2-carboxamide] | 1.21 µM | 57.6% | 76% | 3.33 µM | 3.5 | 11.5 | 11 µM | 11.5 | 0.952 µM | 71.7% | 3.2% | 7.33 | – | – | – | – | – | –
O=C(Nc1nc([C@H]2CCCN2c2ccc(OC3=CCNCC3)cc2)cs1)c1cccn1Cc1ccnc(F)c1 [Compound A89, (R)-1-((2-fluoropyridin-4-yl)methyl)-N-(4-(1-(4-((1,2,3,6-tetrahydropyridin-4-yl)oxy)phenyl)pyrrolidin-2-yl)thiazol-2-yl)-1H-pyrrole-2-carboxamide] | 1.11 µM | 47% | 56.9% | 2.71 µM | 4.9 | 8.3 | 18.4 µM | 32.9 | 0.558 µM | 40.4% | 2.45% | 6.37 | – | – | – | – | – | –
O=C(Nc1nc([C@H]2CCCN2c2ccc(OC3CCN(C(=O)CF)CC3)cc2)cs1)c1cccn1Cc1ccnc(F)c1 [Compound A90, (R)-N-(4-(1-(4-((1-(2-fluoroacetyl)piperidin-4-yl)oxy)phenyl)pyrrolidin-2-yl)thiazol-2-yl)-1-((2-fluoropyridin-4-yl)methyl)-1H-pyrrole-2-carboxamide] | – | 22.3% | 39.1% | 0.0829 µM | 2 | – | 0.512 µM | 12.4 | – | 21.7% | 1.3% | – | – | – | 0.0828 | > 25 | 0.0415 | 1.08
O=C(Nc1nc([C@H]2CCCN2c2ccc(OC3CCN(C(=O)C(F)F)CC3)cc2)cs1)c1cccn1Cc1ccnc(F)c1 [Compound A91, (R)-N-(4-(1-(4-((1-(2,2-difluoroacetyl)piperidin-4-yl)oxy)phenyl)pyrrolidin-2-yl)thiazol-2-yl)-1-((2-fluoropyridin-4-yl)methyl)-1H-pyrrole-2-carboxamide] | 0.0265 µM | 43% | 19.7% | 0.025 µM | 1.7 | > 25 | 0.148 µM | 10 | 0.0148 µM | 27.4% | 2.34% | 0.346 | – | – | – | – | – | –
O=C(Nc1nc([C@H]2CCCN2c2ccc(OC3CCN(C(=O)C(F)(F)F)CC3)cc2)cs1)c1cccn1Cc1ccnc(F)c1 [Compound A92, (R)-1-((2-fluoropyridin-4-yl)methyl)-N-(4-(1-(4-((1-(2,2,2-trifluoroacetyl)piperidin-4-yl)oxy)phenyl)pyrrolidin-2-yl)thiazol-2-yl)-1H-pyrrole-2-carboxamide] | 0.0473 µM | 63.5% | 43.6% | 0.0306 µM | 1.3 | > 25 | 0.254 µM | 10.9 | 0.0233 µM | 52.3% | 22.5% | 0.463 | – | – | – | – | – | –
